Source: PMC3047498 (Journal of andrology, 2010)

Assays:
[1] = test system: endogenous testosterone production; experiment: Suppression of endogenous testosterone production by acyline; format: in vivo, men; details: 300 µg/kg acyline; for Serum testosterone concentration 24 hours after acyline administration: before oral testosterone
[2] = test system: endogenous testosterone production; details: 300 µg/kg acyline, normal healthy men; ref Herbst et al, 2004; cited from earlier work
[3] = testosterone plus finasteride group

acyline
Serum DHT concentration 24 hours after the acyline injection [1, 3]: 0.54 ± 0.32 nmol/L | Serum testosterone concentration 24 hours after acyline administration [1, 3]: 2.3 ± 1.4 nmol/L | Serum DHT concentration 24 hours after the acyline injection ([1]; testosterone-only group): 0.6 ± 0.32 nmol/L | Serum testosterone concentration 24 hours after acyline administration ([1]; testosterone-only group): 2.0 ± 1.3 nmol/L | Duration of testosterone suppression [2]: 2 weeks | Time to suppress testosterone to castrate levels [2]: ≤ 24 h
